From patent publication US20050026263A1, “Multi-functional antibodies” (THE REGENTS OF THE UNIVERSITY OF CALIFORNIA, priority 2003, published 2005)
“Also recorded” adds a separate entry of the source.

Legend:
[1] = tested on: antibody 2D12.5; assay: competitive immunoassay (ELISA) of metal-DOTA complexes relative to Y-DOTA; type: binding, murine; conditions: for binding compared with the original Y^3+ complex / other rare earths: DOTA complexes, 37° C.; for relative binding of Y-DOTA molecules with different sidechain locations (FIG. 17): Y complexes
Description: FIG. 13 is graphical display showing the relative binding of metal-DOTA complexes to antibody 2D 12.5. A representative set of competitive binding curves obtained from ELISA experiments described in Example 3 below. Error bars (representing the standard error of the mean) are shown, but are generally smaller than the data points.
To determine the metal selectivity of the antibody 2D12.5, a competitive immunoassays was used to measure the binding constants of multiple metal-DOTA complexes relative to Y^3+-DOTA.
We examined the monoclonal antibody 2D12.5, initially developed to bind specifically to Y-DOTA for targeted radiotherapy (see, e.g., Goodwin et al., Cancer Res. 54: 5937-5946 (1994)), in order to determine the scope of its activity. To assess the metal selectivity of antibody 2D12.5, a competitive immunoassay to measure the binding constants of various metal-DOTA complexes relative to the original Y^3+ complex was developed (FIG. 12). Briefly, 2D12.5 was incubated at 37° C. in the presence of immobilized Y-DOTA and a soluble metal-DOTA competitor. The metal-DOTA concentration was varied from μM to pM in order to determine the relative binding affinity of 2D12.5 for each metal chelate in comparison to Y-DOTA. Binding was measured by standard methods known to those of skill in the art. The DOTA analog used to evaluate binding was [S]-2-(p-nitrobenzyl)-DOTA, which is similar to the original antigen.

[2] = tested on: 2D12.5; assay: relative binding affinities of metal NBD/AABD complexes and DTPA to 2D12.5; design: species or system murine
Method: FIG. 18 is a graphical display showing the relative binding affinities of the NBD complexes of various metal ions relative to Y-NBD.
Relative binding affinities of NBD complexes of various metals ions relative to Y-NBD were determined by methods known in the art and described herein and shown in FIG. 18.

[3] = tested on: N85D_G54C 2D12.5 mutant; assay: permanent binding of metal-AABD and metal-NBD complexes, Western blot (Example 10); conditions: metal-NBD complexes
Method: The native antibody 2D12.5 binds all rare earth DOTA complexes with high affinity (Corneillie et al., J. Am. Chem. Soc. 125:3436-37, 2003) and other metals with affinities that are weaker. […] Therefore, this mutant was selected for the present example.
Metallation of Chelates with stable metal cations. Metals tested in this experiment included Y, La, Lu, Sr and Sc. Stock chelate concentrations were measured using a Co-57 metal binding assay (Meares et al., Anal. Biochem. 142:68-78, 1984). Stock metal solutions (approximately 0.2 M) were prepared by dissolving the appropriate gravimetrically measured rare earth chloride salt in 0.05 M HCl. As an example, YCl3 (2.5 equivalents) was added to 25 μL of NBD ([…]) dissolved in 0.1 M tetramethylammonium acetate, and the pH was adjusted to 5 by the addition of triethylamine. The metallation was allowed to proceed overnight at 50° C. Samples were promptly frozen at −70° C., and metallation efficiency was assessed using a competitive metal-binding assay with Co-57^3. Excess metal was scavenged with DTPA, which has very low affinity for the antibody (<<1%).
Metal-AABD and metal-NBD complexes were incubated with 2D12.5 Fab mutant N85D_G54C and samples denatured, reduced and separated by SDS-PAGE, as described for Y-90 in the previous examples. […]

In the case of O=C(O)CN1CCN(CC(=O)O)CCN(CC(=O)O)[C@H](Cc2ccc([N+](=O)[O-])cc2)CN(CC(=O)O)CC1 (single isomer, unassigned) [(R)-isomer of 2-(4-nitrobenzyl)-DOTA], the “decrease of affinity as compared to the (S), Λ isomer” value ([1]; coordinated metal Y^3+ (FIG. 16)) is reported as “less than an order of magnitude”.

With O=C(O)CN(CCN(CC(=O)O)CC(=O)O)CCN(CC(=O)O)CC(=O)O [DTPA] the “affinity for the antibody” value [2] was under 1%.

For O=C([O-])CN1CCN(CC(=O)[O-])CCN(CC(=O)[O-])CCN(CC(=O)[O-])CC1.[Eu+3] [Eu-DOTA], the “binding compared with the original Y^3+ complex / other rare earths” value [1] was “strongest binders”.

For O=C([O-])CN1CCN(CC(=O)[O-])CCN(CC(=O)O)CCN(CC(=O)[O-])CC1.[Gd+3] [Gd-DOTA], the “binding compared with the original Y^3+ complex / other rare earths” value [1] was “bind more tightly; also recorded: strongest binders”.

In the case of O=C(O)CN1CCN(CC(=O)O)CCN(CC(=O)O)[C@@H](Cc2ccc([N+](=O)[O-])cc2)CN(CC(=O)O)CC1 [NBD], the “permanent bond with N85D_G54C 2D12.5, non-electrophilic negative control” value [3] is reported as “negative”.

O=C(O)CN1CCN(CC(=O)O)CCN(CC(=O)O)[C@@H](Cc2ccc([N+](=O)[O-])cc2)CN(CC(=O)O)CC1 [Y-NBD, (S)-2-(4-nitrobenzyl)-DOTA] was tested, and the “relative binding of Y-DOTA molecules with different sidechain locations (FIG. 17)” value [1] was “clearly stronger”, the “relative binding of Y-DOTA isomers (FIG. 16)” value ([1]; coordinated metal Y^3+) was “preferred isomer for binding” and the “binding rank of NBD complexes among the rare earths” value [2] was “one of the strongest binders”.

In the case of “(5-Amino-2-methoxy-phenyl)-carboxymethyl)-DOTA”, the “relative binding of Y-DOTA molecules with different sidechain locations (FIG. 17)” value [1] is reported as “decrease in the binding affinity”.
